Common to all, as to test: Virus pre-incubation, plaque formation in TMPRSS cells
What all share (format): cell-based

Assay [1] relates to SARS-CoV-2 variant alpha. Conditions: Severe acute respiratory syndrome coronavirus 2, 2 h; 5 mM, 120 min incubation.
Assay [2] concerns SARS-CoV-2 variant beta. The following applies: Severe acute respiratory syndrome coronavirus 2, 2 h; 5 mM, 120 min incubation.
For assay [3], the system named is SARS-CoV-2 variant gamma. Conditions: Severe acute respiratory syndrome coronavirus 2, 2 h; 5 mM, 120 min incubation.
The subject of assay [4] is SARS-CoV-2 Delta variant. Conditions: 10 mM; for inhibition at 10000 µM: read-out: inhibition / inactivation.

Where a name gives a salt, the structure may show the parent alone. Read-outs that look alike come from different tables or passages of the source.

Results on two compounds are retold here after patent US12527753B2, “Cysteamine for the treatment, mitigation and prevention of coronaviral, e.g., SARS-CoV-2, infections” (The Regents of the University of Michigan, priority 2020, dated 2026).

`NCCS` [cysteamine HCl]: the inhibition at 5000 µM in assay [1], in assay [2] and in assay [3] was 85 to 95% throughout. Besides, the inhibition at 10000 µM in assay [4] (Severe acute respiratory syndrome coronavirus 2, 2 h, 120 min incubation) was 100%; in assay [4] (Severe acute respiratory syndrome coronavirus 2, 15 min incubation, sustained through 90 minutes), 85%.

Take 2-aminoethanethiol [cysteamine]: the inhibition / inactivation in assay [4] (15 min incubation, sustained through 90 minutes) stood at 85%; in assay [4] (120 min incubation) it was 100%.
